In patent US11180462B2, “Microbiocidal oxadiazole derivatives” (SYNGENTA PARTICIPATIONS AG, priority 2015, dated 2021):

Assays:
Phakopsora Pachyrhizi = assay: Fungicidal activity against Phakopsora pachyrhizi / soybean / leaf disc preventative (Asian soybean rust); format: in vivo; conditions: foliar, 200 ppm in the applied formulation, soybean leaf disks, compared to untreated control leaf disks, read-out: disease control
Procedure, shortened: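 Preventative soybean leaf-disc test: discs on water agar sprayed with diluted formulated compound, inoculated one day later with spores on the lower surface. Held 24–36 h dark at 20°C, 75% rh, then 12 h light/day; percent disease control versus untreated discs scored 12–14 days after application.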

[1] = tested on: Puccinia recondita f. Sp. Tritici; assay: Fungicidal activity against Puccinia recondita f. sp. tritici / wheat / leaf disc preventative (brown rust); format: in vivo; conditions: foliar, 200 ppm in the applied formulation, wheat leaf segments, preventative, compared to untreated control leaf disks, read-out: disease control
Procedure, shortened: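 Compound application precedes infection: segments of wheat cv. Kanzler, sprayed at 200 ppm, are inoculated with a spore suspension after 1 day. Incubation is at 19° C. with 75% relative humidity and 12 h light/12 h darkness, and control versus untreated leaves is rated 7 to 9 days post-application.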

[2] = tested on: Puccinia recondita f. Sp. Tritici; assay: Fungicidal activity against Puccinia recondita f. sp. tritici / wheat / leaf disc curative (brown rust); format: in vivo; conditions: foliar, 24 h, 200 ppm in the applied formulation, wheat leaf segments, curative (applied 1 day after inoculation), compared to untreated control leaf disks, read-out: disease control
Procedure, shortened: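 Inoculate cv. Kanzler segments on agar; hold dark, 19° C, 75% RH. Spray diluted formulated compound at day 1. Incubate 12 h light/12 h dark, same temperature and humidity; score % control vs untreated 6–8 days later.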

[3] = tested on: Glomerella lagenarium (Colletotrichum lagenarium); assay: Fungicidal activity against Glomerella lagenarium (Colletotrichum lagenarium) liquid culture / cucumber / preventative (anthracnose); format: cell-based; conditions: Colletotrichum orbiculare; 20 ppm in the applied formulation; liquid culture (PDB), growth inhibition measured photometrically after 3 to 4 days; compared to untreated control; read-out: disease control
Procedure, shortened: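 Photometric read-out of fungal growth after 2–7 days, expressed as percent antifungal activity versus untreated check. Cryo-stored conidia in PDB; compound at 20 ppm; dark, 24 °C, 96% RH.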

C#CCN(Cc1ccc(-c2noc(C(F)(F)F)n2)cc1)C(=O)C1(C)CC1 [Compound 1.183, 1-methyl-N-prop-2-ynyl-N-[[4-[5-(trifluoromethyl)-1,2,4-oxadiazol-3-yl]phenyl]methyl]-cyclopropane-carboxamide]
≥ 80%: pest or weed control at 200 ppm (Phakopsora Pachyrhizi) | pest or weed control at 200 ppm [1] | pest or weed control at 200 ppm [2] | inhibition of growth at 20 ppm [3]

CC(C)N(Cc1ccc(-c2noc(C(F)(F)F)n2)cc1)C(=O)C1(C)COC1 [Compound 1.679, N-isopropyl-3-methyl-N-[[4-[5-(trifluoromethyl)-1,2,4-oxadiazol-3-yl]phenyl]methyl]-oxetane-3-carboxamide]
≥ 80%: pest or weed control at 200 ppm (Phakopsora Pachyrhizi) | pest or weed control at 200 ppm [1] | pest or weed control at 200 ppm [2] | inhibition of growth at 20 ppm [3]

CC(C)(CCl)C(=O)N(Cc1ccc(-c2noc(C(F)(F)F)n2)cc1)C1CC1 [Compound 1.110, 3-chloro-N-cyclopropyl-2,2-dimethyl-N-[[4-[5-(trifluoromethyl)-1,2,4-oxadiazol-3-yl]phenyl]methyl]-propanamide]
≥ 80%: pest or weed control at 200 ppm (Phakopsora Pachyrhizi) | pest or weed control at 200 ppm [1] | pest or weed control at 200 ppm [2] | inhibition of growth at 20 ppm [3]

O=C(C1CCCO1)N(CCO)Cc1ccc(-c2noc(C(F)(F)F)n2)cc1 (centres unmarked) [Compound 1.726, N-(2-hydroxyethyl)-N-[[4-[5-(trifluoromethyl)-1,2,4-oxadiazol-3-yl]phenyl]methyl]-tetrahydrofuran-2-carboxamido]
≥ 80%: pest or weed control at 200 ppm (Phakopsora Pachyrhizi) | pest or weed control at 200 ppm [1] | pest or weed control at 200 ppm [2] | inhibition of growth at 20 ppm [3]

O=C(CC1CC1)N(O)Cc1ccc(-c2noc(C(F)(F)F)n2)cc1 [Compound 1.774, 2-cyclopropyl-N-hydroxy-N-[[4-[5-(trifluoromethyl)-1,2,4-oxadiazol-3-yl]phenyl]methyl]-acetamide]
≥ 80%: pest or weed control at 200 ppm (Phakopsora Pachyrhizi) | pest or weed control at 200 ppm [1] | pest or weed control at 200 ppm [2] | inhibition of growth at 20 ppm [3]

CN(Cc1ccc(-c2noc(C(F)(F)F)n2)cc1)C(=O)C1(C)COC1 [Compound 1.527, N,3-dimethyl-N-[[4-[5-(trifluoromethyl)-1,2,4-oxadiazol-3-yl]phenyl]methyl]-oxetane-3-carboxamide]
≥ 80%: pest or weed control at 200 ppm (Phakopsora Pachyrhizi) | pest or weed control at 200 ppm [1] | pest or weed control at 200 ppm [2] | inhibition of growth at 20 ppm [3]

C#CCN(Cc1ccc(-c2noc(C(F)(F)F)n2)cc1)C(=O)C(=C)C [Compound 1.187, 2-methyl-N-prop-2-ynyl-N-[[4-[5-(trifluoromethyl)-1,2,4-oxadiazol-3-yl]phenyl]methyl]-prop-2-enamide]
≥ 80%: pest or weed control at 200 ppm (Phakopsora Pachyrhizi) | pest or weed control at 200 ppm [1] | pest or weed control at 200 ppm [2] | inhibition of growth at 20 ppm [3]

CCC(C)N(Cc1ccc(-c2noc(C(F)(F)F)n2)cc1)C(=O)C1CCCCO1 (centres unmarked) [Compound 1.368, N-sec-butyl-N-[[4-[5-(trifluoromethyl)-1,2,4-oxadiazol-3-yl]phenyl]methyl]-tetrahydropyran-2-carboxamide]
≥ 80%: pest or weed control at 200 ppm (Phakopsora Pachyrhizi) | pest or weed control at 200 ppm [1] | pest or weed control at 200 ppm [2] | inhibition of growth at 20 ppm [3]

CCN(Cc1ccc(-c2noc(C(F)(F)F)n2)cc1)C(=O)CCOC [Compound 1.496, N-ethyl-3-methoxy-N-[[4-[5-(trifluoromethyl)-1,2,4-oxadiazol-3-yl]phenyl]methyl]-propanamide]
≥ 80%: pest or weed control at 200 ppm (Phakopsora Pachyrhizi) | pest or weed control at 200 ppm [1] | pest or weed control at 200 ppm [2] | inhibition of growth at 20 ppm [3]

CC(C)(C)C(=O)N(Cc1ccc(-c2noc(C(F)(F)F)n2)cc1)C1CC1 [Compound 1.117, N-cyclopropyl-2,2-dimethyl-N-[[4-[5-(trifluoromethyl)-1,2,4-oxadiazol-3-yl]phenyl]methyl]-propanamide]
≥ 80%: pest or weed control at 200 ppm (Phakopsora Pachyrhizi) | pest or weed control at 200 ppm [1] | pest or weed control at 200 ppm [2] | inhibition of growth at 20 ppm [3]

COCCN(Cc1ccc(-c2noc(C(F)(F)F)n2)cc1)C(=O)CC1CC1 [Compound 1.331, 2-cyclopropyl-N-(2-methoxyethyl)-N-[[4-[5-(trifluoromethyl)-1,2,4-oxadiazol-3-yl]phenyl]methyl]-acetamide]
≥ 80%: pest or weed control at 200 ppm (Phakopsora Pachyrhizi) | pest or weed control at 200 ppm [1] | pest or weed control at 200 ppm [2] | inhibition of growth at 20 ppm [3]

C#CCN(Cc1ccc(-c2noc(C(F)(F)F)n2)cc1)C(=O)CC#N [Compound 1.199, 2-cyano-N-prop-2-ynyl-N-[[4-[5-(trifluoromethyl)-1,2,4-oxadiazol-3-yl]phenyl]methyl]-acetamide]
≥ 80%: pest or weed control at 200 ppm (Phakopsora Pachyrhizi) | pest or weed control at 200 ppm [1] | pest or weed control at 200 ppm [2] | inhibition of growth at 20 ppm [3]

CON(Cc1ccc(-c2noc(C(F)(F)F)n2)cc1)C(=O)Cc1ccc(Cl)cc1 [Compound 1.49, 2-(4-chlorophenyl)-N-methoxy-N-[[4-[5-(trifluoromethyl)-1,2,4-oxadiazol-3-yl]phenyl]methyl]-acetamide]
≥ 80%: pest or weed control at 200 ppm (Phakopsora Pachyrhizi) | pest or weed control at 200 ppm [1] | pest or weed control at 200 ppm [2] | inhibition of growth at 20 ppm [3]

COCC(=O)N(Cc1ccc(-c2noc(C(F)(F)F)n2)cc1)C(C)C [Compound 1.600, N-isopropyl-2-methoxy-N-[[4-[5-(trifluoromethyl)-1,2,4-oxadiazol-3-yl]phenyl]methyl]-acetamide]
≥ 80%: pest or weed control at 200 ppm (Phakopsora Pachyrhizi) | pest or weed control at 200 ppm [1] | pest or weed control at 200 ppm [2] | inhibition of growth at 20 ppm [3]

C#CCN(Cc1ccc(-c2noc(C(F)(F)F)n2)cc1)C(=O)C1CCCC1 [Compound 1.168, N-prop-2-ynyl-N-[[4-[5-(trifluoromethyl)-1,2,4-oxadiazol-3-yl]phenyl]methyl]-cyclopentane-carboxamide]
≥ 80%: pest or weed control at 200 ppm (Phakopsora Pachyrhizi) | pest or weed control at 200 ppm [1] | pest or weed control at 200 ppm [2] | inhibition of growth at 20 ppm [3]

C=C(C)C(=O)N(Cc1ccc(-c2noc(C(F)(F)F)n2)cc1)CC1CC1 [Compound 1.229, N-(cyclopropylmethyl)-2-methyl-N-[[4-[5-(trifluoromethyl)-1,2,4-oxadiazol-3-yl]phenyl]methyl]-prop-2-enamide]
≥ 80%: pest or weed control at 200 ppm (Phakopsora Pachyrhizi) | pest or weed control at 200 ppm [1] | pest or weed control at 200 ppm [2] | inhibition of growth at 20 ppm [3]

CCC(COC)C(=O)N(Cc1ccc(-c2noc(C(F)(F)F)n2)cc1)C1COC1 (centres unmarked) [Compound 1.745, 2-(methoxymethyl)-N-(oxetan-3-yl)-N-[[4-[5-(trifluoromethyl)-1,2,4-oxadiazol-3-yl]phenyl]methyl]-butanamide]
≥ 80%: pest or weed control at 200 ppm (Phakopsora Pachyrhizi) | pest or weed control at 200 ppm [1] | pest or weed control at 200 ppm [2] | inhibition of growth at 20 ppm [3]

CCC(=O)N(CCO)Cc1ccc(-c2noc(C(F)(F)F)n2)cc1 [Compound 1.591, N-(2-hydroxyethyl)-N-[[4-[5-(trifiuoromethyl)-1,2,4-oxadiazol-3-yl]phenyl]methyl]-propanamide]
≥ 80%: pest or weed control at 200 ppm (Phakopsora Pachyrhizi) | pest or weed control at 200 ppm [1] | pest or weed control at 200 ppm [2] | inhibition of growth at 20 ppm [3]

CCON(Cc1ccc(-c2noc(C(F)(F)F)n2)cc1)C(=O)C1CCOC1 (centres unmarked) [Compound 1.617, N-ethoxy-N-[[4-[5-(trifluoromethyl)-1,2,4-oxadiazol-3-yl]phenyl]methyl]-tetrahydrofuran-3-carboxamide]
≥ 80%: pest or weed control at 200 ppm (Phakopsora Pachyrhizi) | pest or weed control at 200 ppm [1] | pest or weed control at 200 ppm [2] | inhibition of growth at 20 ppm [3]

CCCN(Cc1ccc(-c2noc(C(F)(F)F)n2)cc1)C(=O)C(C)C [Compound 1.651, 2-methyl-N-propyl-N-[[4-[5-(trifluoromethyl)-1,2,4-oxadiazol-3-yl]phenyl]methyl]-propanamide]
≥ 80%: pest or weed control at 200 ppm (Phakopsora Pachyrhizi) | pest or weed control at 200 ppm [1] | pest or weed control at 200 ppm [2] | inhibition of growth at 20 ppm [3]
